Measured values reported in ChEMBL document CHEMBL1121562, “2-Methylanthraquinone derivatives as potential bioreductive alkylating agents” (1980).

How the values were obtained:
EMT6 [1] = test: Compound is measured for surviving fractions of EMT6 tumor cells treated in culture with (0.50 uM) concentration for 1 hr under hypoxic condition.; format: functional; conditions: Mus musculus, EMT6, 1 h; read-out: ED50 (the source's name)
[2] = Ratio of toxicity in areobic conditions to hypoxic condition of EMT6 cells; format: functional
EMT6 [3] = test: Compound is measured for surviving fractions of EMT6 tumor cells treated in culture with (0.50 uM) concentration for 1 hr under aerobic condition.; format: functional; conditions: Mus musculus, EMT6, 1 h; read-out: ED50 (the source's name)
EMT6 [4] = test: Percentage of EMT6 tumor cells under hypoxic condition were killed when exposed to 10 uM concentration of the compound; format: functional, Mus musculus
EMT6 [5] = test: Maximum effective concentration against EMT6 tumor cells uncer aerobic conditions; format: functional, cell-based; conditions: Mus musculus

Row | Structure (SMILES) | EC50 (EMT6 [1]) [µM] | Ratio [2] | EC50 (EMT6 [3]) [µM] | Inhibition (EMT6 [4]) [%] | Concentration (EMT6 [5]) [µM]
1 | Cc1ccc2c(c1)C(=O)c1ccccc1C2=O [TECTOQUINONE] | 0.54 | 3.2 | 1.7 |  | 
2 | COCc1ccc2c(c1)C(=O)c1ccccc1C2=O | 0.6 | 50 | 30 |  | 
3 | CS(=O)(=O)OCc1ccc2c(c1)C(=O)c1ccccc1C2=O | 69.6 | 2.6 | 180 |  | 
4 | COc1cccc2c1C(=O)c1c(O)c3c(c(O)c1C2=O)C[C@@](O)(C(=O)CO)C[C@@H]3O[C@H]1C[C@H](N)[C@H](O)[C@H](C)O1 [DOXORUBICIN] | < 0.0001 | >120 | 0.012 |  | 
5 | CO[C@@]12[C@H](COC(N)=O)C3=C(C(=O)C(C)=C(N)C3=O)N1C[C@@H]1N[C@@H]12 [MITOMYCIN] | 0.001 | 700 | 0.7 |  | 
6 | O=C1c2ccccc2C(=O)c2cc(CCl)ccc21 | < 0.012 | >26 | 0.31 |  | 
7 | Cc1ccc(S(=O)(=O)OCc2ccc3c(c2)C(=O)c2ccccc2C3=O)cc1 | 9 | >111 | > 1000 | 50 | 
8 | O=C1c2ccccc2C(=O)c2cc(CO)ccc21 | 2.5 | 139 | 348 |  | 
9 | CNC(=O)OCc1ccc2c(c1)C(=O)c1ccccc1C2=O | 0.27 | 30 | 8.1 |  | 100
10 | CC(=O)OCc1ccc2c(c1)C(=O)c1ccccc1C2=O | 9 | 0.4 | 3.6 |  | 
